Data taken from US4065356A, “Production of antibiotic FR-02A (efrotomycin) by streptomyces lactamdurans” (priority 1977, dated 1977).
“Also recorded” adds a separate entry of the source.

Key:
[1] = tested on: Bordetella bronchiseptica; assay: systemic infections produced by Bordetella bronchiseptica in mice; format: in vivo; conditions: orally
[2] = tested on: gram-negative bacteria; assay: antibacterial activity; format: cell-based
[3] = tested on: Alcaligenes faecalis 10; assay: Antibiotic Spectrum Profile, agar diffusion test; format: cell-based; conditions: 1 mg./ml., read-out: Diameters of Inhibition Zones
[4] = tested on: PPLO; assay: PPLO in chickens; format: in vivo
[5] = tested on: Ps. stutzeri 1231; assay: Antibiotic Spectrum Profile, agar diffusion test; format: cell-based; conditions: Stutzerimonas stutzeri, 1 mg./ml., read-out: Diameters of Inhibition Zones
[6] = tested on: Streptococcus faecum; assay: in vitro activity; format: cell-based
[7] = tested on: M. hyorthinis; assay: in vitro activity; format: cell-based
[8] = tested on: Proteus vulgaris; assay: in vitro activity; format: cell-based
[9] = tested on: PPLO; assay: PPLO in pigs; format: in vivo
[10] = tested on: S. aureus 2756; assay: Antibiotic Spectrum Profile, agar diffusion test; format: cell-based; conditions: Staphylococcus aureus, 1 mg./ml., read-out: Diameters of Inhibition Zones
[11] = toxicity studies in noninfected mice; format: in vivo; conditions: for Toxicity, Tolerated / Toxicity, Toxic: IP
Method: (§1) *Values in the table are expressed in mg./mouse. Both infections and
(§2) therapeutic doses of FR-02A were administered intraperitoneally. FR-02A
(§3) was administered at time of infection and again 6 hours later.
**Toxicity studies of FR-02A in noninfected mice indicate that two doses
of 2.5 mg./mouse, 6 hours apart are tolerated; but higher doses i.e. 5 to […]

[12] = growth promotion in animals; format: in vivo, animals such as chickens, sheep and cattle; conditions: feed additive
[13] = tested on: Brucella bronchiseptica 965; assay: microbe, parasite or virus in culture; format: cell-based; conditions: Bordetella bronchiseptica, 965, read-out: Diameters of Inhibition Zones
[14] = tested on: Staphylococcus aureus (MB 703); assay: in vitro activity; format: cell-based
[15] = tested on: Streptococcus faecalis; assay: in vitro activity; format: cell-based
[16] = tested on: Klebsiella pneumoniae (MB 1264); assay: in vitro activity; format: cell-based
[17] = tested on: Bacillus subtilis 964; assay: Antibiotic Spectrum Profile, agar diffusion test; format: cell-based; conditions: 1 mg./ml., read-out: Diameters of Inhibition Zones
[18] = tested on: Bacillus subtilis (MB 964); assay: in vitro activity; format: cell-based
[19] = tested on: Salmonella gallinarum 1287; assay: Antibiotic Spectrum Profile, agar diffusion test; format: cell-based; conditions: Salmonella enterica, 1 mg./ml., read-out: Diameters of Inhibition Zones
[20] = tested on: M. gallisepticum; assay: M. gallisepticum air sacculitis in broilers; format: in vivo
[21] = tested on: Staphylococcus aureus 108; assay: Antibiotic Spectrum Profile, agar diffusion test; format: cell-based; conditions: 1 mg./ml., read-out: Diameters of Inhibition Zones
[22] = tested on: species of Mycoplasma; assay: activity against Mycoplasma; format: cell-based
[23] = tested on: Staphylococcus aureus (MB 210); assay: in vitro activity; format: cell-based
[24] = tested on: Salmonealla gallinarum (MB 1287); assay: in vitro activity; format: cell-based
[25] = stability to handling; format: physicochemical; conditions: pale yellow solid
[26] = tested on: M. synoviae; assay: in vitro activity; format: cell-based
[27] = tested on: M. gallisepticum; assay: in vitro activity; format: cell-based
[28] = tested on: Proteus vulgaris 1012; assay: Antibiotic Spectrum Profile, agar diffusion test; format: cell-based; conditions: 1 mg./ml., read-out: Diameters of Inhibition Zones
[29] = tested on: Bacillus subtilis (MB 797); assay: in vitro activity; format: cell-based
[30] = tested on: Escherichia coli 1418; assay: Antibiotic Spectrum Profile, agar diffusion test; format: cell-based; conditions: 1 mg./ml., read-out: Diameters of Inhibition Zones
[31] = tested on: Streptococcus pyogenes; assay: in vitro activity; format: cell-based
[32] = tested on: Sarcina lutea 1101; assay: Antibiotic Spectrum Profile, agar diffusion test; format: cell-based; conditions: Micrococcus luteus, 1 mg./ml., read-out: Diameters of Inhibition Zones
[33] = tested on: Xanthomonas vesicatoria 815; assay: Antibiotic Spectrum Profile, agar diffusion test; format: cell-based; conditions: 1 mg./ml., read-out: Diameters of Inhibition Zones
[34] = tested on: Strep. pyogenes; assay: in vivo test in mice, Strep. pyogenes infection; conditions: infection IP, therapy IP, at time of infection and 6 hours later
Method: as §1, §2, §3

[35] = tested on: bacteria; assay: antibacterial activity in vivo in mice; conditions: in words

For CC=CC=CC1OC(O)(C(CC)C(=O)NCC=CC=C(C)C(OC)C(C)C2OC(C=CC=CC=C(C)C(=O)c3c(O)ccn(C)c3=O)C(O)C2O)C(O)C(OC2OC(C)C(OC3OC(C)C(OC)C(O)C3OC)C(OC)C2O)C1(C)C (centres unmarked) [FR-02A, efrotomycin], the “efficacy in systemic infections produced by Bordetella bronchiseptica” value [1] was “orally effective”, the “activity against gram-negative bacteria” value [2] was “shows activity; also recorded: effective” and the zone of inhibition at 1000 µg/mL [3] was 19 mm. For the same molecule, the “efficacy against PPLO” value [4] was “effective”, the zone of inhibition at 1000 µg/mL [5] was 10 mm and the in vitro activity [6] was “effective”. For the same molecule, the in vitro activity [7] was “effective”, the in vitro activity [8] was “effective” and the “efficacy against PPLO” value [9] was “effective”. For the same molecule, the zone of inhibition at 1000 µg/mL [10] was 23 mm, the “Toxicity, Tolerated” value ([11]; Table 2 line Proteus vulgaris) was 5.0 mg./mouse and the “Toxicity, Toxic” value ([11]; Table 2 line Proteus vulgaris) was 5.0 mg./mouse. The “Toxicity, Tolerated” value ([11]; Table 2 line Strep. pyogenes) was 1.25 mg./mouse, the “Toxicity, Toxic” value ([11]; Table 2 line Strep. pyogenes) was 5.0 mg./mouse and the toxicity in vivo ([11]; in mice, in words) was “low toxicity”. The tolerated dose ([11]; noninfected mice, two doses 6 hours apart) was 2.5 mg./mouse, the growth promotion [12] was “shortens the time required for bringing animals up to marketable weight” and the zone of inhibition at 1000 µg/mL [13] was 18 mm. For the same molecule, the activity [14] was “Activity was also found”, the in vitro activity [15] was “effective” and the activity [16] was “Activity was also found”. The zone of inhibition at 1000 µg/mL [17] was 19 mm, the activity [18] was “Activity was also found” and the zone of inhibition at 1000 µg/mL [19] was 13 mm. The ED50 ([20]; Mycoplasmoides gallisepticum, air sacculitis in broilers) was 40 to 100 mg/kg, the “efficacy against M. gallisepticum air sacculitis” value ([20]; subcutaneously, broilers) was “efficacious” and the zone of inhibition at 1000 µg/mL [21] was 11 mm. For the same molecule, the “activity against species of Mycoplasma” value [22] was “shows activity”, the activity [23] was “Activity was also found” and the activity [24] was “Activity was also found”. The “stability to normal handling” value [25] was “stable to normal handling”, the in vitro activity [26] was “effective” and the in vitro activity [27] was “effective”. The zone of inhibition at 1000 µg/mL [28] was 10 mm, the activity [29] was “Activity was also found” and the zone of inhibition at 1000 µg/mL [30] was 15 mm. For the same molecule, the in vitro activity [31] was “effective”, the zone of inhibition at 1000 µg/mL [32] was 28 mm and the zone of inhibition at 1000 µg/mL [33] was 13 mm. The ED50 [34] was 0.247 mg./mouse and the “antibacterial activity in vivo” value [35] was “broad spectrum of antibacterial activity”.
